We go through 1 compound from PMC5706701, “Development of a homogenous high-throughput assay for inositol hexakisphosphate kinase 1 activity” (PLoS ONE, 2017).

What is called IC50 is the point on the concentration scale where inhibition reaches its midpoint.

Data set [1] has as its target T1, Human IP6K1 (Homo sapiens, UniProt Q92551).
T1 construct: GST (N, cleaved yes); made in house; host or cells: C43 E. coli, pGEX-6P-2
Description: IP6K1 inhibition dose-response assay (ADP-Glo Max). The class given is biochemical. Conditions: for IC50: read-out: IC50 IP6K1.

Data set [2] has as its system enzymes involved in the detection steps of the kit. Briefly: Counter-screen against the detection steps of the ADP-Glo Max kit (no enzyme, no IP6). The class given is biochemical. Conditions: 10μM compound, 25μM ADP and 975μM ATP. As to the method:
The Sigma LOPAC was obtained as 10mM DMSO stock solutions from the Johns Hopkins ChemCore facility. Each compound was first diluted to 50μM and 25% DMSO in assay buffer. The inhibition assay was performed as described above with 1μL of compound and 4μL of kinase master mix so that the final compound concentration was 10μM in 5% DMSO. […] Hits were determined based by the Z score, which is calculated as Z = (Xi-Xavg)/Sx, where Xi is the raw measurement on the i^th compound, Xavg and Sx are the mean and the standard deviation, respectively, of all measurements within the plate. Hits identified from the screen were repeated in the assay in quadruplicate for confirmation. These confirmed hits were then tested to determine if they inhibited the enzymes involved in the detection steps of the kit. Possible interference of the compounds was assessed by measuring the degree to which they inhibited the signal produced by a 25μM ADP in the presence of 975μM ATP. This experiment was run as described above for the inhibition assays in the absence of enzyme and IP6.

Data set [3] has as its target T1, Human IP6K1. Briefly: Inositol polyphosphate separation by PAGE (5PP-IP5 production by IP6K1). The data set is classed as biochemical. Conditions: 10μM inhibitor, 1mM ATP, 250μM IP6, 60nM IP6K1, 2 hours, 37°C.
A further data set relates to DIO mice. Further details: method as in PMID 27689003. Conditions: DIO model, mice treated with TNP; cited from earlier work.
For data set [4] the following is noted: cited from earlier work.
The conditions of data set [5]: cited from earlier work. This is another data set of the same source.

Entries after “also recorded” stand apart in the source; their conditions may differ. Read-outs that look alike come from different tables or passages of the source.

T1 sequence (Q92551 whole entry): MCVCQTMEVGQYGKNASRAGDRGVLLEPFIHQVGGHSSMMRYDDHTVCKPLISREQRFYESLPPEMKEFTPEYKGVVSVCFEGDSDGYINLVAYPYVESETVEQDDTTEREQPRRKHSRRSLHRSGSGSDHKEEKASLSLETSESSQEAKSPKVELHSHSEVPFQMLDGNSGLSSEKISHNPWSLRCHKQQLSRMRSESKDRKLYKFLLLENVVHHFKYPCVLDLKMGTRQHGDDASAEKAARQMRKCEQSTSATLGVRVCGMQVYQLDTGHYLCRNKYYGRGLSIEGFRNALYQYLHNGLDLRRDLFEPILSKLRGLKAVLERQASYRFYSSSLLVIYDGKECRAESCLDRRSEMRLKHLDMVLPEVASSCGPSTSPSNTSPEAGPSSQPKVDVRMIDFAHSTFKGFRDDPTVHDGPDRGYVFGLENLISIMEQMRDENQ

For the compound `O=[N+]([O-])c1ccc(CNc2nc(NCc3cccc(C(F)(F)F)c3)nc3nc[nH]c23)cc1` [TNP, N2-(m-trifluorobenzyl), N6-(p-nitrobenzyl)purine], the IC50 at Human IP6K1 [1] (50μM IP6, 300μM ATP, 60nM IP6K1, 15 minutes) was 24 ± 1.5 µM; on Human IP6K1 [1] (62.5μM ATP, 400μM IP6, 60nM IP6K1, 30 minutes, 37°C), 12 ± 1.1 µM; at Human IP6K1 [1] (100μM IP6, 300μM ATP, 60nM IP6K1, 15 minutes) it was 20 ± 4.5 µM; on Human IP6K1 [1] (200μM IP6, 300μM ATP, 60nM IP6K1, 15 minutes), 21 ± 1.8 µM; at Human IP6K1 [1] (250μM ATP, 400μM IP6, 60nM IP6K1, 30 minutes, 37°C), 16 ± 1.1 µM; at Human IP6K1 [1] (400μM IP6, 300μM ATP, 60nM IP6K1, 15 minutes) it was 9.5 ± 1.5 µM. Moreover, the IC50 on Human IP6K1 [1] (2mM ATP, 400μM IP6, 60nM IP6K1, 30 minutes, 37°C) amounted to 39 ± 1.1 µM. The “Mode of inhibition of IP6K1” value at Human IP6K1 [1] (from IC50 shift with ATP or IP6 concentration) is “ATP competitive inhibitor; also recorded: IP6 is not competitive with TNP”. Moreover, the “Signal loss in counter-screen of detection steps” value in data set [2] is reported as “neither TNP nor 6-Hydroxy-DL-Dopa showed significant signal loss”. Also, the “Inhibition of 5PP-IP5 production by IP6K1 (PAGE, Toluidine Blue)” value at Human IP6K1 [3] was “inhibit 5PP-IP5 production in this experiment at 10μM albeit to a lesser degree”. In the data set with DIO mice, the “Performance in insulin and glucose tolerance tests” value is “better performance in insulin and glucose tolerance tests”. Moreover, the Pharmacokinetic properties entry in data set [4] is “poor pharmacokinetic properties”. In data set [4] (in vivo), the Brain penetration result is listed as “low brain penetration”. Moreover, the “Solubility in aqueous media” value in data set [5] is recorded as “insolubility in aqueous media”.
